Source: PubChem BioAssay AID1963973 (Molecular Pharmacology Branch, DTP, NCI, 2024)
pIC50: −log10 of the molar value.

System: 883617-216-R-J1-PDC tumor spheroids, viability
Assay: Anticancer human tumor 883617-216-R-J1-PDC patient-derived bladder carcinoma cell line growth inhibition [PI3K]
Details: spheroids with HUVEC and MSC; for pIC50: curve of first compound; for viability, T/C: stronger effect = lower value
Method in brief: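 Agents were dosed from a top concentration near clinical Cmax (otherwise 10 microM) in half-log decrements, alone or combined with PI3K inhibitors. The spheroids contain tumor cells plus endothelial (HUVEC) and MSC stroma; viability is measured.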
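Further: spheroids exposed to agents for 7 days before the viability read.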

`CC(Cn1ccc(-c2ccc(C#N)c(Cl)c2)n1)NC(=O)c1cc(C(C)O)[nH]n1` (configuration not stated) + COc1c(OCCCN2CCOCC2)ccc2c3n(c(=NC(=O)c4cnc(N)nc4)nc12)CCN3 gave a pIC50 (second compound 0.00316 µM) of under 5.00, a pIC50 (second compound 0.01 µM) of under 5.00 and a pIC50 (second compound 0.0316 µM) of over 7.50. The pIC50 (second compound 0.1 µM) was over 7.50, the pIC50 (second compound 0.316 µM) was over 7.50 and the pIC50 (second compound 1 µM) was over 7.50. For the same compound, the viability, T/C (second compound 0.00316 µM, first compound 0.0316 µM) was 74.1%, the viability, T/C (second compound 0.00316 µM, first compound 0.1 µM) was 75.2% and the viability, T/C (second compound 0.00316 µM, first compound 0.316 µM) was 83.8%. For the same compound, the viability, T/C (second compound 0.00316 µM, first compound 1 µM) was 96.2%, the viability, T/C (second compound 0.00316 µM, first compound 3.16 µM) was 83.8% and the viability, T/C (second compound 0.00316 µM, first compound 10 µM) was 79.3%. It also gave a viability, T/C (second compound 0.01 µM, first compound 0.0316 µM) of 68.8%, a viability, T/C (second compound 0.01 µM, first compound 0.1 µM) of 70.4% and a viability, T/C (second compound 0.01 µM, first compound 0.316 µM) of 70.3%. The viability, T/C (second compound 0.01 µM, first compound 1 µM) was 65.6%, the viability, T/C (second compound 0.01 µM, first compound 3.16 µM) was 65.7% and the viability, T/C (second compound 0.01 µM, first compound 10 µM) was 64.2%. For the same compound, the viability, T/C (second compound 0.0316 µM, first compound 0.0316 µM) was 31.1%, the viability, T/C (second compound 0.0316 µM, first compound 0.1 µM) was 33% and the viability, T/C (second compound 0.0316 µM, first compound 0.316 µM) was 37.3%. It also gave a viability, T/C (second compound 0.0316 µM, first compound 1 µM) of 29.4%, a viability, T/C (second compound 0.0316 µM, first compound 3.16 µM) of 35.7% and a viability, T/C (second compound 0.0316 µM, first compound 10 µM) of 30.2%. It also gave a viability, T/C (second compound 0.1 µM, first compound 0.0316 µM) of 14.9%, a viability, T/C (second compound 0.1 µM, first compound 0.1 µM) of 11% and a viability, T/C (second compound 0.1 µM, first compound 0.316 µM) of 14.6%. It also gave a viability, T/C (second compound 0.1 µM, first compound 1 µM) of 19%, a viability, T/C (second compound 0.1 µM, first compound 3.16 µM) of 13.3% and a viability, T/C (second compound 0.1 µM, first compound 10 µM) of 11.6%. It also gave a viability, T/C (second compound 0.316 µM, first compound 0.0316 µM) of 5.01%, a viability, T/C (second compound 0.316 µM, first compound 0.1 µM) of 4.53% and a viability, T/C (second compound 0.316 µM, first compound 0.316 µM) of 4.26%. For the same compound, the viability, T/C (second compound 0.316 µM, first compound 1 µM) was 4.08%, the viability, T/C (second compound 0.316 µM, first compound 3.16 µM) was 5.69% and the viability, T/C (second compound 0.316 µM, first compound 10 µM) was 4.16%. The viability, T/C (second compound 1 µM, first compound 0.0316 µM) was 3.17%, the viability, T/C (second compound 1 µM, first compound 0.1 µM) was 2.54% and the viability, T/C (second compound 1 µM, first compound 0.316 µM) was 3.2%. It also gave a viability, T/C (second compound 1 µM, first compound 1 µM) of 3.42%, a viability, T/C (second compound 1 µM, first compound 3.16 µM) of 4.42% and a viability, T/C (second compound 1 µM, first compound 10 µM) of 4.01%.
